Test results: patent publication US20250230193A1, “CYCLIC COMPOUND HAVING SELECTIVE KRAS INHIBITORY EFFECT ON HRAS AND NRAS” (CHUGAI SEIYAKU KABUSHIKI KAISHA, priority 2022, published 2025)
Where a SMILES comes first, the peptide text is derived from it. Bridges are numbered along the chain shown (N, C = ends). [ ]: non-standard residue; d: D form. The star is where a group is joined. hPhe(3-Cl-4-CF3) = N[C@@H](CCc1ccc(C(F)(F)F)c(Cl)c1)C(=O)O; NPrPhe(4-CF3) = CCCN[C@@H](Cc1ccc(C(F)(F)F)cc1)C(=O)O; NEtPhe(4-Me) = CCN[C@@H](Cc1ccc(C)cc1)C(=O)O; NMeGly(cPent) = CN[C@H](C(=O)O)C1CCCC1; Gly(cPent) = N[C@H](C(=O)O)C1CCCC1; Hyp = O=C(O)[C@@H]1C[C@@H](O)CN1; NMeD = CN[C@@H](CC(=O)O)C(=O)O; NMeL = CN[C@@H](CC(C)C)C(=O)O; Morpholide = C1CN(*)CCO1; NMeA = CN[C@@H](C)C(=O)O; Ac5c = NC1(C(=O)O)CCCC1; Aze = O=C(O)[C@@H]1CCN1; Sar = CNCC(=O)O

Assays:
[1] = target: GDP-bound NRAS wild-type protein (Homo sapiens, UniProt P01111); test: Binding to NRAS by surface plasmon resonance (SPR), Single Cycle Kinetics; details: SPR
GDP-bound NRAS wild-type protein, sequence (P01111 whole entry): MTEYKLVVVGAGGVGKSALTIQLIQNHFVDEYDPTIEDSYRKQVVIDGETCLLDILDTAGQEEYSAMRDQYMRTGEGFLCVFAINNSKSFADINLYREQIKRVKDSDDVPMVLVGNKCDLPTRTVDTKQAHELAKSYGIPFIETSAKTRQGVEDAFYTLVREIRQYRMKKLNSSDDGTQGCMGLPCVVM

[2] = target: GDP-bound HRAS wild-type protein (Homo sapiens, UniProt P01112); test: Binding to HRAS by surface plasmon resonance (SPR), Single Cycle Kinetics; details: SPR
GDP-bound HRAS wild-type protein, sequence (P01112 whole entry): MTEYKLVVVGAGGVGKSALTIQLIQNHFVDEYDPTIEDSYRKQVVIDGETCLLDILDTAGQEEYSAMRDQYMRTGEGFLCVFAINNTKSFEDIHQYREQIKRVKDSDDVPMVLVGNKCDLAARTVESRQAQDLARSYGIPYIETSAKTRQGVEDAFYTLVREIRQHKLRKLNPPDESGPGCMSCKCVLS

[3] = KD ratio, GDP-bound NRAS wild-type vs GDP-bound KRAS wild-type
[4] = KD ratio, GDP-bound HRAS wild-type vs GDP-bound KRAS wild-type

CCC[C@H]1C(=O)N[C@@H]([C@@H](C)CC)C(=O)N(C)CC(=O)N(C)[C@H]2C/C=C\CCN(C2=O)[C@@H](Cc2ccc(C)cc2)C(=O)N(C)CC(=O)N[C@@H](CCc2ccc(C(F)(F)F)c(Cl)c2)C(=O)N2C[C@H](OCC)C[C@H]2C(=O)NC2(CC(C)(C)C2)C(=O)N(C)[C@@H](CC(C)C)C(=O)N(C)[C@H](C(=O)N(C)C)CC(=O)N1C [PP2224]
NRAS/KRAS (ratio of KD value with respect to NRAS to KD value with respect to KRAS) ([1]; GDP-bound NRAS wild-type vs GDP-bound KRAS wild-type): A (a compound having 10 or more and less than 20 is denoted as A)
HRAS/KRAS (ratio of KD value with respect to HRAS to KD value with respect to KRAS) ([2]; GDP-bound HRAS wild-type vs GDP-bound KRAS wild-type): A (a compound having 10 or more and less than 20 is denoted as A)

CCO[C@@H]1C[C@H]2C(=O)NC3(CCC3)C(=O)N(C)[C@@H](C3CCCC3)C(=O)N(C)[C@H](C(=O)N(C)C)CC(=O)N(C)[C@@H](CC)C(=O)N[C@@H]([C@@H](C)CC)C(=O)N(C)[C@@H](C)C(=O)N(C)[C@H]3C/C=C\CCN(C3=O)[C@@H](Cc3ccc(C(F)(F)F)cc3)C(=O)N(C)CC(=O)N[C@@H](CCc3cc(F)c(C(F)(F)F)c(F)c3)C(=O)N2C1 [PP1054]
NRAS/KRAS (ratio of KD value with respect to NRAS to KD value with respect to KRAS) [1, 3]: A (a compound having 10 or more and less than 20 is denoted as A)
HRAS/KRAS (ratio of KD value with respect to HRAS to KD value with respect to KRAS) [2, 4]: B (a compound having 3 or more and less than 10 is denoted as B)

CC[C@H](C)[C@@H]1NC(=O)[C@H](CC(C)C)N(C)C(=O)C[C@@H](C(=O)N2CCOCC2)N(C)C(=O)[C@H](C2CCCC2)N(C)C(=O)C2(CCC2)NC(=O)[C@@H]2C[C@@H](OCC3CCCC3)CN2C(=O)[C@H](CCc2cc(F)c(C(F)(F)F)c(F)c2)NC(=O)CN(C)C(=O)[C@H](Cc2ccc(C(F)(F)F)cc2)N2CCCC[C@@H](C2=O)N(C)C(=O)CN(C)C1=O [PP1015]
NRAS/KRAS (ratio of KD value with respect to NRAS to KD value with respect to KRAS) [1, 3]: C (A compound having a KD ratio of 0.1 or more and less than 3 is denoted as C)
HRAS/KRAS (ratio of KD value with respect to HRAS to KD value with respect to KRAS) [2, 4]: C (A compound having a KD ratio of 0.1 or more and less than 3 is denoted as C)

CC[C@H](C)[C@@H]1NC(=O)[C@H](CC2CCC2)N(C)C(=O)C[C@@H](C(=O)N(C)C)N(C)C(=O)[C@H](C2CCCC2)N(C)C(=O)C2(CC(C)(C)C2)NC(=O)[C@@H]2C[C@H](C)CN2C(=O)[C@H](CCc2cc(F)c(C(F)(F)F)c(F)c2)NC(=O)CN(C)C(=O)[C@H](Cc2ccc(C(F)(F)F)cc2)N2CC/C=C\C[C@@H](C2=O)N(C)C(=O)CN(C)C1=O [PP1684]
NRAS/KRAS (ratio of KD value for NRAS to KD value for KRAS) [1, 3]: A (a compound having 10 or more and less than 20 is denoted as A)
HRAS/KRAS (ratio of KD value for HRAS to KD value for KRAS) [2, 4]: A (a compound having 10 or more and less than 20 is denoted as A)

CC[C@H](C)[C@@H]1NC(=O)[C@H](C)N(C)C(=O)C[C@@H](C(=O)N2CCOCC2)N(C)C(=O)[C@H](C2CCCC2)N(C)C(=O)C2(CCCC2)NC(=O)[C@@H]2CCCN2C(=O)[C@H](CCc2ccc(C(F)(F)F)c(Cl)c2)NC(=O)CN(C)C(=O)[C@H](Cc2ccc(C)cc2)N(CC)C(=O)[C@@H]2CCN2C(=O)[C@H](C)N(C)C1=O [PP0007] ([NMeA]I[NMeA][Aze][NEtPhe(4-Me)][Sar][hPhe(3-Cl-4-CF3)]P[Ac5c][NMeGly(cPent)][NMeD]-Morpholide; lactam N-11)
NRAS/KRAS (ratio of KD for GDP-bound NRAS wild-type to KD for KRAS) [1]: C (A compound having a KD ratio of 0.1 or more and less than 3 is denoted as C)
HRAS/KRAS (ratio of KD for GDP-bound HRAS wild-type to KD for KRAS) [2]: C (A compound having a KD ratio of 0.1 or more and less than 3 is denoted as C)

CCCN1C(=O)CN(C)C(=O)[C@@H]2CCN2C(=O)[C@H](C2CCCC2)NC(=O)[C@H](CC(C)C)N(C)C(=O)C[C@@H](C(=O)N2CCOCC2)N(C)C(=O)[C@H](C2CCCC2)N(C)C(=O)C2(CCCC2)NC(=O)[C@@H]2CCCN2C(=O)[C@H](CCc2ccc(C(F)(F)F)c(Cl)c2)NC(=O)CN(C)C(=O)[C@@H]1Cc1ccc(C(F)(F)F)cc1 [PP0306] ([NMeL][Gly(cPent)][Aze][Sar][NPrPhe(4-CF3)][Sar][hPhe(3-Cl-4-CF3)]P[Ac5c][NMeGly(cPent)][NMeD]-Morpholide; lactam N-11)
NRAS/KRAS (ratio of KD for GDP-bound NRAS wild-type to KD for KRAS) [1]: B (a compound having 3 or more and less than 10 is denoted as B)
HRAS/KRAS (ratio of KD for GDP-bound HRAS wild-type to KD for KRAS) [2]: B (a compound having 3 or more and less than 10 is denoted as B)

CCCN1C(=O)CN(C)C(=O)CN(C)C(=O)[C@H]([C@@H](C)CC)NC(=O)[C@H](CC(C)C)N(C)C(=O)C[C@@H](C(=O)N2CCOCC2)NC(=O)[C@H](C2CCCC2)N(C)C(=O)C2(CCCC2)NC(=O)[C@@H]2C[C@@H](OCC)CN2C(=O)[C@H](CCc2ccc(C(F)(F)F)c(Cl)c2)NC(=O)CN(C)C(=O)[C@@H]1Cc1ccc(C(F)(F)F)cc1 [PP0323] ([NMeL]I[Sar][Sar][NPrPhe(4-CF3)][Sar][hPhe(3-Cl-4-CF3)][Hyp](Et)[Ac5c][NMeGly(cPent)]D-Morpholide; lactam N-11)
NRAS/KRAS (ratio of KD for GDP-bound NRAS wild-type to KD for KRAS) [1]: B (a compound having 3 or more and less than 10 is denoted as B)
HRAS/KRAS (ratio of KD for GDP-bound HRAS wild-type to KD for KRAS) [2]: B (a compound having 3 or more and less than 10 is denoted as B)
